Source: publication PMC5784442 (ACS catalysis, 2017)

What was measured:
‘TesA [1] = molecular target: T1, ‘TesA (Escherichia coli, UniProt P0ADA1); assay: X-ray crystal structure, […] A; type: binding; conditions: 3 mM octanoic acid, Homo-PIPES pH 5.0
T1 sequence (P0ADA1 27-208): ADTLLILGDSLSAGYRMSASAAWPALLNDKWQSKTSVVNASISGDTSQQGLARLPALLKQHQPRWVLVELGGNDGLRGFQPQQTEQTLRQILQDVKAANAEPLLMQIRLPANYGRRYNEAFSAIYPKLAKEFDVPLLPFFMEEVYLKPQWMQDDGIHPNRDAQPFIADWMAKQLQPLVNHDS

‘TesA [2] = molecular target: T1, ‘TesA; assay: DTNB assay at […] nm, free CoA release; type: biochemical; conditions: 0-120 µM substrate, 40 nM enzyme

Structure (SMILES)	X-ray crystal structure, 1.65 A (‘TesA [1])	DTNB assay at 412 nm, free CoA release (‘TesA [2])
CCCCCCCC(=O)O [C8, octanoic acid]	Crystal structures of WT ‘TesA and R3.M4 bound to octanoic acid were solved	–
CCCCCCCC(=O)SCCNC(=O)CCNC(=O)[C@H](O)C(C)(C)COP(=O)(O)OP(=O)(O)OC[C@H]1O[C@@H](n2cnc3c(N)ncnc32)[C@H](O)[C@@H]1OP(=O)(O)O [C8-CoA, octanoyl-CoA]	–	‘TesA WT and R3.M4 activity on C8-CoA
CCCCCCCCCCCC(=O)SCCNC(=O)CCNC(=O)[C@H](O)C(C)(C)COP(=O)(O)OP(=O)(O)OC[C@H]1O[C@@H](n2cnc3c(N)ncnc32)[C@H](O)[C@@H]1OP(=O)(O)O [C12-CoA, dodecanoyl-CoA]	–	highest in vitro ‘TesA WT activity (Figure 7A) was observed for C12-CoA, C14-CoA and C16-CoA
